The source of these data is patent publication US5559101A, “L-ribofuranosyl nucleosides” (priority 1994, dated 1996).

The test system of one data set is CALU (lung). In words: Radiometric growth inhibition of tumor cells, CALU. The data set is classed as cell-based, human. Also noted: % SURVIVAL TUMOR: concentration or dose not given beside the values. From the text: (§1) CELL LINES: Eight different established human cell lines CALU (lung), COLO320 (colon), H578St (breast), HT-29 (colon), MCF-7 (breast), OM-1 (colon), SKLU (lung) and SKMES(lung), and two control cell lines (bone marrow and/or fibroblast cells) were utilized. All cell lines were obtained from the Tumor Cloning Laboratory, Institute for Drug Development, Cancer Therapy and Research Center, San Antonio, Tex. All cell lines grew as monolayers in the appropriate culture medium supplemented with heat-inactivated calf serum. All reagents were obtained from Grand Island Biological Co., Grand Island, N.Y.
(§2) The iv formulations of the compounds of the present invention were prepared with sterile buffered saline and stored at -70° C. until required for testing.
(§3) Following trypsinization, tumor cells were suspended in tissue culture medium and exposed to the antitumor agents continuously at three different concentrations: 10, 1 and 0.1 μg/ml.
(§4) RADIOMETRIC MEASUREMENT OF GROWTH INHIBITION: Growth inhibition was assessed with the BACTEC System 460 (Johnston Laboratories, Towson, Md.) after addition of the antitumor agent to the cell in the respective growth medium containing ^14 C-glucose at a final concentration of 2 μCi/ml.
(§5) Two mls of the tumor cell suspension containing radioactive glucose were seeded into sterile, disposable 15 ml vials by injection through self-sealing rubber-aluminum caps. […] The seeded vials were then incubated at 37° C. Measurement of the release of ^14 CO2 resulting from the metabolism of ^14 C-glucose were performed on days 6, 9, 12 and 15 in the BACTEC instrument. This instrument flushes the ^14 CO2 containing air out of the vials into an ionization chamber that converts dpm to growth index values. […] Each data point represents triplicate values.
(§6) All compounds were dosed on an equimilimolar basis.

Another data set has as its system OM-1 (colon). In words: Radiometric growth inhibition of tumor cells, OM-1. The data set is classed as cell-based, human. Also noted: % SURVIVAL TUMOR: concentration or dose not given beside the values. The note with it: for IC50: Homo sapiens.
Source text: as §1, §2, §3, §4, §5, §6

In a further data set the test system is SKMES (lung). In words: Radiometric growth inhibition of tumor cells, SKMES. Format: cell-based, human.
Source text: as §1, with “N.Y. […]” for “N.Y.”
RADIOMETRIC MEASUREMENT OF GROWTH INHIBITION: Growth inhibition was assessed with the BACTEC System 460 (Johnston Laboratories, Towson, Md.) after addition of the antitumor agent to the cell in the respective growth medium containing ^14 C-glucose at a final concentration of 2 μCi/ml. […]
Two mls of the tumor cell suspension containing radioactive glucose were seeded into sterile, disposable 15 ml vials by injection through self-sealing rubber-aluminum caps. […] Chemotherapy sensitivity was calculated by comparing the growth index values of drug-treated vials to that observed in control vials. […]

A further data set has as its system HT29 (colon). As to the kind of experiment: Radiometric growth inhibition of tumor cells, HT29. Details: % SURVIVAL TUMOR: concentration or dose not given beside the values. Format: cell-based, human.
Source text: as §1, §2, §3, §4, §5, §6

A short description of data set [1]: In vitro survival of bone marrow control cells (radiometric BACTEC). Format: cell-based. Details: concentration or dose not given beside the values.
Source text: as §1, §2, §3, §4, §5, §6

The subject of the next data set is HS578T (breast). In words: Radiometric growth inhibition of tumor cells, HS578T. The data set is classed as cell-based, human. Particulars: for % SURVIVAL TUMOR: continuous exposure; for IC50: Homo sapiens, Hs-578T.
Source text: as §1, §2, §3, §4, §5, §6

The next data set deals with COLO320 (colon). As to the kind of experiment: Radiometric growth inhibition of tumor cells, COLO320. Also noted: % SURVIVAL TUMOR: concentration or dose not given beside the values. Particulars: for IC50: Homo sapiens, COLO 320. The data set is classed as cell-based, human.
Source text: as §1, §2, §3, §4, §5, §6

Another data set has as its system MCF-7 (breast). As to the kind of experiment: Radiometric growth inhibition of tumor cells, MCF-7. The data set is classed as cell-based, human. Details: % SURVIVAL TUMOR: concentration or dose not given beside the values. The note with it: for IC50: Homo sapiens, MCF7; for % SURVIVAL TUMOR: continuous exposure.
Source text: as §1, §2, §3, §4, §5, §6

For a further data set, the system named is SKLU (lung). In words: Radiometric growth inhibition of tumor cells, SKLU. The data set is classed as cell-based, human. Details: % SURVIVAL TUMOR: concentration or dose not given beside the values. The note with it: for IC50: Homo sapiens.
Source text: as §1, §2, §3, §4, §5, §6

The mark [2] stands for this setting: OM-1, concentration required to kill 50%, read-out: IC 50.
Setting [3] is: HS578T, concentration required to kill 50%, read-out: IC 50.
Setting [4] is: SKLU, concentration required to kill 50%, read-out: IC 50.

≈ marks a conversion by molar mass, not a printed value. Like-named read-outs stand apart in the source and are kept apart here. Bounds are passed on as bounds.

Turning to `O=c1[nH]cc(F)c(=O)[nH]1` [Example 5-FU, 5-fluorouracil, reference compound], the “% SURVIVAL TUMOR” value in the data set with CALU (lung) (CALU, continuous exposure) was 2.2%; with OM-1 (colon) (human, om-1 colon tumor cells) it was 1.7%; in the data set with SKMES (lung) (continuous exposure), 11.2%; with HT29 (colon) (HT29, continuous exposure), 1.2%; with HS578T (breast) (HS578T), 43.5%; in the data set on COLO320 (colon) (human, colo320 colon tumor cells), 1.0%. For the same compound, the “% SURVIVAL TUMOR” value turned out to be 0.8% with MCF-7 (breast) (MCF-7) and 5.0% with SKLU (lung) (human, sklu lung tumor cells). Also, the IC50 in the data set with CALU (lung) (Homo sapiens) was under 0.6 µg/mL; with OM-1 (colon), 1.47 µg/mL (≈ 11.3 µM); with SKMES (lung) (Homo sapiens, concentration required to kill 50%), under 0.6 µg/mL; with HT29 (colon) (Homo sapiens, HT-29) it was 0.613 µg/mL (≈ 4.71 µM); with HS578T (breast) it was under 0.6 µg/mL; with COLO320 (colon) it was under 0.6 µg/mL. Moreover, the IC50 with MCF-7 (breast) is under 0.6 µg/mL; in the data set on SKLU (lung) it was 1.05 µg/mL (≈ 8.07 µM). Moreover, in data set [1] (bone marrow cells), the viability was 1.9%.

For `O=c1[nH]cnc2c1ncn2[C@H]1O[C@@H](CO)[C@H](O)[C@@H]1O` [β-:-ribofuranosyl hypoxanthine, 9-β-L-Ribofuranosylhypoxanthine], the IC50 with OM-1 (colon) (setting [2]) is 82.7 µg/mL (≈ 308 µM); in the data set with HS578T (breast) (setting [3]), over 10 µg/mL; in the data set with COLO320 (colon) (COLO320, concentration required to kill 50%, read-out: IC 50) it was 17.9 µg/mL (≈ 66.7 µM); in the data set with MCF-7 (breast) (MCF-7, concentration required to kill 50%, read-out: IC 50), 38.1 µg/mL (≈ 142 µM); in the data set with SKLU (lung) (setting [4]), 48.1 µg/mL (≈ 179 µM). Further, the “% SURVIVAL TUMOR” value with OM-1 (colon) (OM-1, continuous exposure) is 87.3%; in the data set on HS578T (breast) (HS578T), 93.4%; in the data set with COLO320 (colon) (COLO320, continuous exposure) it was 68.2%; in the data set on MCF-7 (breast) (MCF-7), 96.8%; in the data set on SKLU (lung) (SKLU, continuous exposure) it was 82.5%. Besides, the viability in data set [1] (bone marrow control cells, continuous exposure, read-out: % SURVIVAL BONE MARROW) was 118%.

In the case of `Nc1nc(S)c2ncn([C@H]3O[C@@H](CO)[C@H](O)[C@@H]3O)c2n1` [β-L-ribofuranosyl-6-thioguanine, 9-β-L-Ribofuranosyl-6-thioguanine], the values for the IC50 in the data set with OM-1 (colon) (setting [2]), in the data set with HS578T (breast) (setting [3]) and in the data set on SKLU (lung) (setting [4]) were 42.7 µg/mL (≈ 143 µM), 17.1 µg/mL (≈ 57.1 µM) and 8.7 µg/mL (≈ 29.1 µM), respectively. Besides, the “% SURVIVAL TUMOR” value is 83.1% with OM-1 (colon) (human, om-1 colon tumor cells); 66.6% with HS578T (breast) (HS578T); 45.1% in the data set with SKLU (lung) (human, sklu lung tumor cells). The viability in data set [1] (bone marrow cells) is 97.4%.
